Measured values as given in paper PMC8305717, “4-Phenethyl-1-Propargylpiperidine-Derived Dual Inhibitors of Butyrylcholinesterase and Monoamine Oxidase B” (Molecules, 2021).
“Also recorded” adds a separate entry of the source.

Target: T1, hAChE (Homo sapiens, UniProt P22303)
T1 construct: gift from Xavier Brazzolotto, Florian Nachon and José Dias (IRBA, Brétigny-sur-Orge, France)
Experiment: Ellman method cholinesterase assay, hAChE
Type: biochemical
Details: residual activity at 100 µM compound; 5-min pre-incubation; RA above 50% considered inactive; read-out: RA ± SD (%) at 100 µM, hAChE
Procedure: (§1) Inhibitory potencies against human (h)AChE and hBChE were determined using the Ellman method and inhibitory potencies against hMAO-A and hMAO-B were determined with horseradish peroxidase (HRP)-Amplex Red coupled assay.
(§2) The inhibitory potencies of the compounds against the ChEs were determined using the Ellman method. 5,5′-Dithiobis (2-nitrobenzoic acid) (Ellman’s reagent; DTNB, St. Louis, MO, USA), butyrylthiocholine iodide, and acetylthiocholine iodides were from Sigma-Aldrich. Recombinant hAChE and hBChE at the stock concentration of 16.5 mg/mL and 14.5 mg/mL, respectively, were kindly donated by Xavier Brazzolotto, Florian Nachon, and José Dias (IRBA, Brétigny-sur-Orge, France). The enzyme solutions were prepared by dilution of the concentrated stocks in 0.1 M phosphate-buffered solution (pH 8.0). The reactions were carried out in a final volume of 300 µL of 0.1 M phosphate-buffered solution, pH 8.0, containing 370 µM DTNB, 500 μM butyrylthiocholine/acetylthiocholine, and approximately 1 nM or 50 pM hBChE or hAChE, respectively. The reactions were started by the addition of the substrate after 5-min pre-incubation at room temperature. For time-dependency measurements of hBChE inhibition, the pre-incubation time was varied (i.e., 1 min, 5 min, 15 min, 30 min). The final content of the organic solvent (DMSO) was always 1%. The formation of the yellow 5-thio-2-nitrobenzoate anion as a result of the reaction of DTNB with the thiocholines was monitored for 1 min as the change in absorbance at 412 nm, using a 96-well microplate reader (SynergyTM H4; BioTek Instruments, Inc., USA). The initial velocities in the presence (vi) and the absence (vo) of the test compounds were calculated. The inhibitory potencies were expressed as the residual activities, according to RA = (vi − b)/(vo − b), where b is the blank value using phosphate buffer without ChEs. […] The IC50 values were obtained by plotting the residual ChEs activities against the applied inhibitor concentrations, with the experimental data fitted to a four-parameter logistic function (GraphPad Prism 9.0; GraphPad Software Inc., San Diego, CA, USA).

T1 sequence (P22303 32-614): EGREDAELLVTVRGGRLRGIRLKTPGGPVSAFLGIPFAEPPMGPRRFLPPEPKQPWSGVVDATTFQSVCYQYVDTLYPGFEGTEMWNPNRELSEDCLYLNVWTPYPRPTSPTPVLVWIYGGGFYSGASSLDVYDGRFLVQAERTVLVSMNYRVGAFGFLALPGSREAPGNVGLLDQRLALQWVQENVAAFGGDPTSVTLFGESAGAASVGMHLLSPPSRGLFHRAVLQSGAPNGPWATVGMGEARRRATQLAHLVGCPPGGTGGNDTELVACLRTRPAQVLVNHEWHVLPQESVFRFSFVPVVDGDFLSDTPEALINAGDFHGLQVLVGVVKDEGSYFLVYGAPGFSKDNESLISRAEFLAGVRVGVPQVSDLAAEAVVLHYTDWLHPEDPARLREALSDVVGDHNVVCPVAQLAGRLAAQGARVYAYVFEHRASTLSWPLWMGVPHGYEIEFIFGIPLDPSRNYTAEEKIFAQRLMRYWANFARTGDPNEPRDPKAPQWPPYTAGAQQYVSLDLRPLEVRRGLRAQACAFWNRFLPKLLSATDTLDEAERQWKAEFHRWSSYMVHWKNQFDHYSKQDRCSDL

SMILES | remaining activity at 100 µM [%]
C#CCN1CCC(CCc2ccc(OC(=O)Nc3ccccc3)cc2)CC1 [Compound 12, 4-(2-(1-(prop-2-yn-1-yl)piperidin-4-yl)ethyl)phenyl phenylcarbamate] | 52.2 ± 1.7
C#CCN1CCC(/C=C/c2ccc(OC)cc2)CC1 [Compound 6, (E)-4-(4-methoxystyryl)-1-(prop-2-yn-1-yl)piperidine] | 61.9 ± 1.2
C#CCN1CCC(/C=C/c2ccc(O)cc2)CC1 [Compound 9, (E)-4-(2-(1-(prop-2-yn-1-yl)piperidin-4-yl)vinyl)phenol] | 65.9 ± 3.1
C#CCN1CCC(CCc2ccc(OC)cc2)CC1 [Compound 7, 4-(4-methoxyphenethyl)-1-(prop-2-yn-1-yl)piperidine] | 73.1 ± 4.3
C#CCN1CCC(CCc2cccc(OC)c2)CC1 [Compound 8, 4-(3-methoxyphenethyl)-1-(prop-2-yn-1-yl)piperidine] | 73.2 ± 8.9

Target: T2, hBChE (Homo sapiens, UniProt P06276)
T2 construct: gift from Xavier Brazzolotto, Florian Nachon and José Dias (IRBA, Brétigny-sur-Orge, France)
T2 sequence (P06276 29-602): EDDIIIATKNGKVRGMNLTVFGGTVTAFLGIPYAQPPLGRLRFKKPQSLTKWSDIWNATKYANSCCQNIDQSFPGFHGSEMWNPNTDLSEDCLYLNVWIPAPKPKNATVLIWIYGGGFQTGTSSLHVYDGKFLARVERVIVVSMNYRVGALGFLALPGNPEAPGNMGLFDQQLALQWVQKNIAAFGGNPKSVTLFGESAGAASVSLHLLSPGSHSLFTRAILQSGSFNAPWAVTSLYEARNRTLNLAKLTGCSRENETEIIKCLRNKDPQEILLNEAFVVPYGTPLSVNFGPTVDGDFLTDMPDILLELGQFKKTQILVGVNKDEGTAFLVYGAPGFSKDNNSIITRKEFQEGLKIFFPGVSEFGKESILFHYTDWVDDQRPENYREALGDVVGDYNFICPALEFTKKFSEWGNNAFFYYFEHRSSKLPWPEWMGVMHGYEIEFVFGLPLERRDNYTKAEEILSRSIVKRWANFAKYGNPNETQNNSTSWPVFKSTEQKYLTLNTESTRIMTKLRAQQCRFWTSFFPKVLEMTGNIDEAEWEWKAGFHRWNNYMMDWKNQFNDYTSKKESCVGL
Experiment: Ellman method cholinesterase assay, hBChE
Type: biochemical
Details: residual activity at 100 µM compound; 5-min pre-incubation; RA above 50% considered inactive
Procedure: as §1, §2

SMILES | RA ± SD (%) at 100 µM, hBChE [%]
C#CCN1CCC(CCc2ccc(OC(=O)Nc3ccccc3)cc2)CC1 [Compound 12, 4-(2-(1-(prop-2-yn-1-yl)piperidin-4-yl)ethyl)phenyl phenylcarbamate] | 60.2 ± 1.8
C#CCN1CCC(/C=C/c2ccc(OC)cc2)CC1 [Compound 6, (E)-4-(4-methoxystyryl)-1-(prop-2-yn-1-yl)piperidine] | 68.8 ± 0.6
C#CCN1CCC(/C=C/c2ccc(O)cc2)CC1 [Compound 9, (E)-4-(2-(1-(prop-2-yn-1-yl)piperidin-4-yl)vinyl)phenol] | 64.9 ± 2.0
C#CCN1CCC(CCc2ccc(OC)cc2)CC1 [Compound 7, 4-(4-methoxyphenethyl)-1-(prop-2-yn-1-yl)piperidine] | 51.2 ± 1.6
C#CCN1CCC(CCc2cccc(OC)c2)CC1 [Compound 8, 4-(3-methoxyphenethyl)-1-(prop-2-yn-1-yl)piperidine] | 55.5 ± 0.2

Target: T3, hMAO-A (Homo sapiens, UniProt P21397)
T3 construct: purchased Sigma Aldrich; host or cells: BTI-TN-5B1-4 insect cells
T3 sequence (P21397 1-527): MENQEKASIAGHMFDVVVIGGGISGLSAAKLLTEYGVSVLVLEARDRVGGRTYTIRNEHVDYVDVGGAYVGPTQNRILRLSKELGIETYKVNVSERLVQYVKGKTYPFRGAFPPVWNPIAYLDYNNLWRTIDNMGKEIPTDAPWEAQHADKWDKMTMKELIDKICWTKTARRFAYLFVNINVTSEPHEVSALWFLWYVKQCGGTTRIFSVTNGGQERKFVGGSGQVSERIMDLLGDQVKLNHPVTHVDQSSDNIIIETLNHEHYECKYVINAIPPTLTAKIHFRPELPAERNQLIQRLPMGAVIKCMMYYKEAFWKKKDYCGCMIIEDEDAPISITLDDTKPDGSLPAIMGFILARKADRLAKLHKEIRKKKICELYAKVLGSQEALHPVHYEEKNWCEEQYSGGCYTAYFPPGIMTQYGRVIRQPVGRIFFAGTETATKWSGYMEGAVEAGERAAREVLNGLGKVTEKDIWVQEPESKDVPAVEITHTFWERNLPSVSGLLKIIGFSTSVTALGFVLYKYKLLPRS
Experiment: HRP-Amplex Red coupled fluorimetric assay, hMAO-A
Type: biochemical
Details: 0.25 h; residual activity at 100 µM compound; 15 min incubation at 37 °C; RA above 50% considered inactive; read-out: RA ± SD (%) at 100 µM, hMAO-A
Procedure: as §1
(§3) The effects of the test compounds on hMAO were investigated using a fluorimetric assay. Recombinant hMAO, expressed in BTI-TN-5B1-4 insect cells, p-tyramine hydrochloride, and horse-radish peroxidase type II were purchased from Sigma Aldrich, whereas Amplex Red was synthesized as reported previously.
(§4) In brief, 100 µL 50 mM sodium phosphate buffer (pH 7.4, 0.05 vol.% Triton X-114) containing the compounds or the reference inhibitors and hMAO were incubated for 15 min at 37 °C. The reaction was started by adding Amplex Red (final concentration, 250 µM), horseradish peroxidase (final activity, 2 U/mL), and p-tyramine (final concentration, 1 mM). The fluorescence increase (λex = 530 nm, λem = 590 nm) at 37 °C was monitored for 20 min. DMSO was used for control experiments. To determine the blank value (b), phosphate-buffered solution replaced the enzyme. Each measurement was performed in duplicate. The inhibitory potencies were expressed as the residual activities (RA) and IC50 values as described in Section 3.2.1. For the reversibility assay, the previously described protocol was followed.

SMILES | remaining activity at 100 µM [%]
C#CCN1CCC(CCc2ccc(OC(=O)Nc3ccccc3)cc2)CC1 [Compound 12, 4-(2-(1-(prop-2-yn-1-yl)piperidin-4-yl)ethyl)phenyl phenylcarbamate] | 56.7 ± 0.9
C#CCN1CCC(/C=C/c2ccc(OC)cc2)CC1 [Compound 6, (E)-4-(4-methoxystyryl)-1-(prop-2-yn-1-yl)piperidine] | 52.6 ± 0.7
C#CCN1CCC(CCc2ccc(OC)cc2)CC1 [Compound 7, 4-(4-methoxyphenethyl)-1-(prop-2-yn-1-yl)piperidine] | 62.2 ± 1.8
C#CCN1CCC(CCc2cccc(OC)c2)CC1 [Compound 8, 4-(3-methoxyphenethyl)-1-(prop-2-yn-1-yl)piperidine] | 59.8 ± 3.7

Same assay, conditions: 15 min incubation at 37 °C; 3 independent experiments; read-out: IC50 ± SEM, hMAO-A

SMILES | IC50 [µM]
C#CCN1CCC(/C=C/c2ccc(O)cc2)CC1 [Compound 9, (E)-4-(2-(1-(prop-2-yn-1-yl)piperidin-4-yl)vinyl)phenol] | 15.5 ± 0.9

Target: T4, hMAO-B (Homo sapiens, UniProt P27338)
T4 construct: purchased Sigma Aldrich; host or cells: BTI-TN-5B1-4 insect cells
T4 sequence (P27338 1-520): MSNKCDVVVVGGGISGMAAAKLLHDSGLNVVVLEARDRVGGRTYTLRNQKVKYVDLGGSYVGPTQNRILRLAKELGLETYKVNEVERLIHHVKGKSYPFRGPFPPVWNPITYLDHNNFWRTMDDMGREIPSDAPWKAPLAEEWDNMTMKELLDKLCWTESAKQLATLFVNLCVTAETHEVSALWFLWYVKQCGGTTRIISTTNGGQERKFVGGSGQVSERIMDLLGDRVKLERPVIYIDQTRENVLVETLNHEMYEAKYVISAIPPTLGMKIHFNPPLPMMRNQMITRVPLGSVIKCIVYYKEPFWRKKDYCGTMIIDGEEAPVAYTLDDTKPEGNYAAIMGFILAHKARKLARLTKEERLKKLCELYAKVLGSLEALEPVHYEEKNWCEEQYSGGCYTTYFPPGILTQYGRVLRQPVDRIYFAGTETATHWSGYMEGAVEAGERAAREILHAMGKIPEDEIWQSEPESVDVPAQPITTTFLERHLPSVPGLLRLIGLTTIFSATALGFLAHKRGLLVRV
Experiment: HRP-Amplex Red coupled fluorimetric assay, hMAO-B
Type: biochemical
Details: 15 min incubation at 37 °C; 3 independent experiments; read-out: IC50 ± SEM, hMAO-B
Procedure: as §1, §3, §4

SMILES | IC50 [µM]
C#CCN1CCC(CCc2ccc(OC(=O)Nc3ccccc3)cc2)CC1 [Compound 12, 4-(2-(1-(prop-2-yn-1-yl)piperidin-4-yl)ethyl)phenyl phenylcarbamate] | 9.7 ± 1.2
C#CCN1CCC(/C=C/c2ccc(O)cc2)CC1 [Compound 9, (E)-4-(2-(1-(prop-2-yn-1-yl)piperidin-4-yl)vinyl)phenol] | 12.9 ± 1.1
C#CCN1CCC(CCc2cccc(OC)c2)CC1 [Compound 8, 4-(3-methoxyphenethyl)-1-(prop-2-yn-1-yl)piperidine] | 0.238 ± 0.0269

Target: T4, hMAO-B
Experiment: hMAO-B 100-fold dilution reversibility assay and IC50 shift at various pre-incubation times
Type: biochemical
Details: 100-fold dilution assay
Procedure: as §4
The reversibility was analyzed by one-way ANOVA and post-hoc comparisons were made using two-tailed Student’s t-test. p < 0.05—statistically significant. All data are means ± SEM (n = 2).
Figure 5 (A) A 100-fold dilution assay for hMAO-B inhibitors 12–14. L-Deprenyl was used as an irreversible inhibitor control; safinamide and isatin were used as reversible inhibitor controls. Data are mean values ± SEM (n = 2; each in quadruplicate): ∗, p < 0.05 (one-way ANOVA, with Bonferroni correction, followed by t-tests).

SMILES | Reversibility of hMAO-B inhibition
C#CCN1CCC(CCc2ccc(OC(=O)Nc3ccccc3)cc2)CC1 [Compound 12, 4-(2-(1-(prop-2-yn-1-yl)piperidin-4-yl)ethyl)phenyl phenylcarbamate] | reversible

Same assay, conditions: various pre-incubation times

SMILES | Time-dependence of hMAO-B inhibition (IC50 shift)
C#CCN1CCC(CCc2ccc(OC(=O)Nc3ccccc3)cc2)CC1 [Compound 12, 4-(2-(1-(prop-2-yn-1-yl)piperidin-4-yl)ethyl)phenyl phenylcarbamate] | absence of IC50 shift; also recorded: did not exhibit time-dependent inhibition
